According to US20190216761A1, “COMPOSITIONS COMPRISING 15-HEPE AND METHODS OF USING THE SAME” (Afimmune Limited, priority 2015, published 2019):
Marks after values point to notes of the source that are not given here.

Key:
[1] = target: T1, hPPARγ (Homo sapiens, UniProt P37231); test: PPAR agonist reporter assay (Gal4 hybrid receptor, luciferase); format: cell-based
T1 construct: expressed in transfected cells
T1 sequence (P37231 238-503 limits assumed): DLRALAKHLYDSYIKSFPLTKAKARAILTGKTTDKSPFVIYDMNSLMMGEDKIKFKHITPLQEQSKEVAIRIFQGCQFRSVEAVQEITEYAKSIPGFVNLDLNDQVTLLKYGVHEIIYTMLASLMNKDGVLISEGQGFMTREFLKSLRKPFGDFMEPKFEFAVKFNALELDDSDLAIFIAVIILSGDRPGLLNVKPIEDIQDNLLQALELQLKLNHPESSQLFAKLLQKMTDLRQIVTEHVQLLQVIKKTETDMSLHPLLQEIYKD
Experimental: (§1) This study utilized proprietary reporter cells expressing a hybrid receptor comprising the N-terminal Gal4 DNA binding domain fused to the ligand binding domain of the specific human nuclear receptor (hPPARα, hPPARδ, and hPPARγ) and rat nuclear receptor (rPPARα, rPPARδ, and rPPARγ). The reporter vectors used in this Example comprise the firefly luciferase gene functionally linked to the Gal4 upstream activation sequence.
(§2) Nuclear Receptor assay was performed by dispensing 100 μL of a suspension of Reporter Cells in Cell Recovery Medium (CRM) containing 10% charcoal stripped FBS into each well of a white 96-well plate. Test compounds were diluted using compound screening medium (CSM) containing 10% charcoal stripped FBS to generate “2×-concentration” treatment media. Immediately after this dilution step, 100 μL of each diluted 2×-concentration treatment medium was dispensed (in triplicate) into the Reporter Cell-containing assay wells.
(§3) After incubation at 37° C. for 24 hours, the treatment media was discarded. 100 μL of Luciferase Detection Reagent substrate was added to each well and RLUs were quantified from each well to determine nuclear receptor activities.

[2] = target: T2, rPPARα (Rattus norvegicus, UniProt P37230); test: as above; format: cell-based
T2 construct: expressed in transfected cells
T2 sequence (P37230 239-466 limits assumed): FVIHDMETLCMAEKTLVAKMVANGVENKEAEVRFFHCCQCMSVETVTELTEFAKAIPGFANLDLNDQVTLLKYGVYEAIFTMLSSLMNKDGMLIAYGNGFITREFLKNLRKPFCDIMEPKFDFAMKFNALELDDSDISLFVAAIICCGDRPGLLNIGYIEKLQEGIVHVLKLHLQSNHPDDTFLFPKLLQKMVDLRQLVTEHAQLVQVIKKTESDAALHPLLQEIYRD
Experimental: as §1, §2, §3

[3] = system: rPPARδ; test: as above; format: cell-based, rat
Experimental: as §1, §2, §3

[4] = system: rPPARδ; test: PPAR antagonist reporter assay (reference agonist at EC80); format: cell-based, rat
Experimental: as §1
(§4) Nuclear Receptor assay was performed by suspending Reporter Cells in CRM containing 10% charcoal stripped FBS. 2×-EC80 concentrations of the appropriate reference agonist were then added to the Reporter Cell suspension, and 100 μL of the mixture dispensed into wells of a white 96-well plate. Test compounds were diluted using compound screening medium (CSM) containing 10% charcoal stripped FBS to generate “2×-concentration” treatment media. Immediately after this dilution step, 100 μL of each diluted 2×-concentration treatment medium was dispensed (in triplicate) into the Reporter Cell-containing assay wells.
(§5) After incubation at 37° C. for 24 hours, the treatment media was discarded. Each well was rinsed once with LCM Buffer; LCM substrate was then added. After incubation for 30 minutes at 37° C., fluorescence was measured to determine the relative number of live cells per assay well. LCM substrate was then discarded and 100 μL of Luciferase Detection Reagent substrate was added to each well. RLUs were quantified from each well to determine nuclear receptor activities.

[5] = system: hPPARα Reporter Cells; test: Live cell multiplex assay; format: cell-based
Experimental: as §1, §4, §5

[6] = system: hPPARγ Reporter Cells; test: Live cell multiplex assay; format: cell-based
Experimental: as §1, §4, §5

[7] = system: hPPARδ Reporter Cells; test: Live cell multiplex assay; format: cell-based
Experimental: as §1, §4, §5

[8] = system: rPPARα Reporter Cells; test: Live cell multiplex assay; format: cell-based
Experimental: as §1, §4, §5

[9] = system: rPPARγ Reporter Cells; test: Live cell multiplex assay; format: cell-based
Experimental: as §1, §4, §5

[10] = system: rPPARδ Reporter Cells; test: Live cell multiplex assay; format: cell-based
Experimental: as §1, §4, §5

[11] = at medium to higher doses in the dose response curve

Fold-Activation (vs. 0.10% DMSO) hPPAR-γ ([1]; 137 nM): 1.0 fold
Fold-Activation (vs. 0.10% DMSO) hPPAR-γ ([1]; 412 nM): 1.1 fold
Fold-Activation (vs. 0.10% DMSO) hPPAR-γ ([1]; 1,235 nM): 1.3 fold
Fold-Activation (vs. 0.10% DMSO) hPPAR-γ ([1]; 3,704 nM): 1.5 fold
Fold-Activation (vs. 0.10% DMSO) hPPAR-γ ([1]; 11,111 nM): 2.1* fold
Fold-Activation (vs. 0.10% DMSO) hPPAR-γ ([1]; 33,333 nM): 3.6* fold
Fold-Activation (vs. 0.10% DMSO) hPPAR-γ ([1]; 100,000 nM): 6.1* fold
Fold-Activation (vs. 0.10% DMSO) hPPAR-γ ([1]; 300,000 nM): 0.027 fold
agonism activity against human PPARγ (in words) ([1]; at low to higher doses in the dose response curve): moderate agonism activity
Fold-Activation (vs. 0.10% DMSO) rPPAR-α ([2]; 137 nM): 1.1 fold
Fold-Activation (vs. 0.10% DMSO) rPPAR-α ([2]; 412 nM): 1.2 fold
Fold-Activation (vs. 0.10% DMSO) rPPAR-α ([2]; 1,235 nM): 1.2 fold
Fold-Activation (vs. 0.10% DMSO) rPPAR-α ([2]; 3,704 nM): 1.4 fold
Fold-Activation (vs. 0.10% DMSO) rPPAR-α ([2]; 11,111 nM): 1.7 fold
Fold-Activation (vs. 0.10% DMSO) rPPAR-α ([2]; 33,333 nM): 2.6* fold
Fold-Activation (vs. 0.10% DMSO) rPPAR-α ([2]; 100,000 nM): 1.4 fold
Fold-Activation (vs. 0.10% DMSO) rPPAR-α ([2]; 300,000 nM): 0.068 fold
agonism activity against rat PPARα (in words) [2, 11]: mild to moderate agonism activity
Fold-Activation (vs. 0.10% DMSO) rPPAR-δ ([3]; 137 nM): 1.3 fold
Fold-Activation (vs. 0.10% DMSO) rPPAR-δ ([3]; 412 nM): 1.5 fold
Fold-Activation (vs. 0.10% DMSO) rPPAR-δ ([3]; 1,235 nM): 1.6 fold
Fold-Activation (vs. 0.10% DMSO) rPPAR-δ ([3]; 3,704 nM): 1.8 fold
Fold-Activation (vs. 0.10% DMSO) rPPAR-δ ([3]; 11,111 nM): 2.4* fold
Fold-Activation (vs. 0.10% DMSO) rPPAR-δ ([3]; 33,333 nM): 2.7* fold
Fold-Activation (vs. 0.10% DMSO) rPPAR-δ ([3]; 100,000 nM): 7.2* fold
Fold-Activation (vs. 0.10% DMSO) rPPAR-δ ([3]; 300,000 nM): 1.9 fold
agonism activity against rat PPARδ (in words) [3, 11]: mild to moderate agonism activity
% Inhibition of agonist-stimulated receptor activity vs. 0.10% DMSO, rPPAR-δ ([4]; 137 nM): 25%
% Inhibition of agonist-stimulated receptor activity vs. 0.10% DMSO, rPPAR-δ ([4]; 412 nM): 1.5%
% Inhibition of agonist-stimulated receptor activity vs. 0.10% DMSO, rPPAR-δ ([4]; 1,235 nM): −1.8%
% Inhibition of agonist-stimulated receptor activity vs. 0.10% DMSO, rPPAR-δ ([4]; 3,704 nM): 6.8%
% Inhibition of agonist-stimulated receptor activity vs. 0.10% DMSO, rPPAR-δ ([4]; 11,111 nM): 1.2%
% Inhibition of agonist-stimulated receptor activity vs. 0.10% DMSO, rPPAR-δ ([4]; 33,333 nM): 26%
% Inhibition of agonist-stimulated receptor activity vs. 0.10% DMSO, rPPAR-δ ([4]; 100,000 nM): 58%
% Inhibition of agonist-stimulated receptor activity vs. 0.10% DMSO, rPPAR-δ ([4]; 300,000 nM): 100%
SMILES: CC/C=C\C[C@H](O)/C=C/C=C\C/C=C\C/C=C\CCCC(=O)OCC [15-HEPE-EE, 15-HEPE ethyl ester]
inhibition of rat PPARs (in words), rPPARδ ([4]; at higher test concentrations): apparent inhibition
% Live cells vs. 0.10% DMSO, hPPAR-α ([5]; 137 nM): 96%
% Live cells vs. 0.10% DMSO, hPPAR-α ([5]; 412 nM): 94%
% Live cells vs. 0.10% DMSO, hPPAR-α ([5]; 1,235 nM): 119%
% Live cells vs. 0.10% DMSO, hPPAR-α ([5]; 3,704 nM): 120%
% Live cells vs. 0.10% DMSO, hPPAR-α ([5]; 11,111 nM): 117%
% Live cells vs. 0.10% DMSO, hPPAR-α ([5]; 33,333 nM): 115%
% Live cells vs. 0.10% DMSO, hPPAR-α ([5]; 100,000 nM): 69%
% Live cells vs. 0.10% DMSO, hPPAR-α ([5]; 300,000 nM): 35%
% Live cells vs. 0.10% DMSO, hPPAR-γ ([6]; 137 nM): 86%
% Live cells vs. 0.10% DMSO, hPPAR-γ ([6]; 412 nM): 99%
% Live cells vs. 0.10% DMSO, hPPAR-γ ([6]; 1,235 nM): 101%
% Live cells vs. 0.10% DMSO, hPPAR-γ ([6]; 3,704 nM): 101%
% Live cells vs. 0.10% DMSO, hPPAR-γ ([6]; 11,111 nM): 100%
% Live cells vs. 0.10% DMSO, hPPAR-γ ([6]; 33,333 nM): 99%
% Live cells vs. 0.10% DMSO, hPPAR-γ ([6]; 100,000 nM): 91%
% Live cells vs. 0.10% DMSO, hPPAR-γ ([6]; 300,000 nM): 4.9%
% Live cells vs. 0.10% DMSO, hPPAR-δ ([7]; 137 nM): 95%
% Live cells vs. 0.10% DMSO, hPPAR-δ ([7]; 412 nM): 98%
% Live cells vs. 0.10% DMSO, hPPAR-δ ([7]; 1,235 nM): 99%
% Live cells vs. 0.10% DMSO, hPPAR-δ ([7]; 3,704 nM): 100%
% Live cells vs. 0.10% DMSO, hPPAR-δ ([7]; 11,111 nM): 101%
% Live cells vs. 0.10% DMSO, hPPAR-δ ([7]; 33,333 nM): 101%
% Live cells vs. 0.10% DMSO, hPPAR-δ ([7]; 100,000 nM): 101%
% Live cells vs. 0.10% DMSO, hPPAR-δ ([7]; 300,000 nM): 7.7%
% Live cells vs. 0.10% DMSO, rPPAR-α ([8]; 137 nM): 89%
% Live cells vs. 0.10% DMSO, rPPAR-α ([8]; 412 nM): 98%
% Live cells vs. 0.10% DMSO, rPPAR-α ([8]; 1,235 nM): 97%
% Live cells vs. 0.10% DMSO, rPPAR-α ([8]; 3,704 nM): 99%
% Live cells vs. 0.10% DMSO, rPPAR-α ([8]; 11,111 nM): 99%
% Live cells vs. 0.10% DMSO, rPPAR-α ([8]; 33,333 nM): 98%
% Live cells vs. 0.10% DMSO, rPPAR-α ([8]; 100,000 nM): 76%
% Live cells vs. 0.10% DMSO, rPPAR-α ([8]; 300,000 nM): 3.1%
% Live cells vs. 0.10% DMSO, rPPAR-γ ([9]; 137 nM): 98%
% Live cells vs. 0.10% DMSO, rPPAR-γ ([9]; 412 nM): 101%
% Live cells vs. 0.10% DMSO, rPPAR-γ ([9]; 1,235 nM): 101%
% Live cells vs. 0.10% DMSO, rPPAR-γ ([9]; 3,704 nM): 100%
% Live cells vs. 0.10% DMSO, rPPAR-γ ([9]; 11,111 nM): 101%
% Live cells vs. 0.10% DMSO, rPPAR-γ ([9]; 33,333 nM): 101%
% Live cells vs. 0.10% DMSO, rPPAR-γ ([9]; 100,000 nM): 99%
% Live cells vs. 0.10% DMSO, rPPAR-γ ([9]; 300,000 nM): 91%
% Live cells vs. 0.10% DMSO, rPPAR-δ ([10]; 137 nM): 99%
% Live cells vs. 0.10% DMSO, rPPAR-δ ([10]; 412 nM): 97%
% Live cells vs. 0.10% DMSO, rPPAR-δ ([10]; 1,235 nM): 98%
% Live cells vs. 0.10% DMSO, rPPAR-δ ([10]; 3,704 nM): 99%
% Live cells vs. 0.10% DMSO, rPPAR-δ ([10]; 11,111 nM): 100%
% Live cells vs. 0.10% DMSO, rPPAR-δ ([10]; 33,333 nM): 100%
% Live cells vs. 0.10% DMSO, rPPAR-δ ([10]; 100,000 nM): 99%
% Live cells vs. 0.10% DMSO, rPPAR-δ ([10]; 300,000 nM): 5.0%
